The values below come from US20260355191A1, “PAN-RAS INHIBITOR COMPOUND” (ADLAI NORTYE BIOPHARMA CO., LTD., priority 2024, published 2026).

For orientation: IC50 means the concentration needed to halve the response being measured. What is called bioavailability is dose-corrected exposure relative to a reference, in per cent. Lower therefore signals poor availability. As a reminder, the Vd is the apparent volume that relates the amount in the body to the concentration in plasma or blood. Low readings indicate little distribution into tissue, high ones wide distribution into tissue. As a reminder, the clearance is the volume of plasma or blood freed of the substance per unit of time. Read a low clearance as inefficient removal. As a reminder, the AUC is the area under the concentration-time curve, a measure of exposure. The term Cmax denotes the maximum level reached in the sampled fluid or tissue.

The test system of one series is SW480. Put plainly: In vitro cell proliferation inhibition assay (CellTiter-Glo), SW480. The following applies: SW480, KRAS (p.G12V), 72 h; read-out: IC50, antiproliferative activity. The class given is cell-based. For orientation: ATP-based viability assays read luminescence as a measure of living cells.
The target in a further series is T1, cyclophilin A (CypA) (Homo sapiens, UniProt P62937).
T1 construct: purchased R&D 3589-CAB
The experiment in a line: Binary complex binding assay (BLI). The following applies: His-tagged CypA, pH 7.4, 1:1 binding model; for Kd: read-out: KD1 (binary complex equilibrium dissociation constant); for kon: read-out: ka (association rate constant); for koff: read-out: kdis (dissociation rate constant). Here is the method:
To evaluate the binding ability of the test compounds to cyclophilin A (CypA), we employed a Bio-layer Interferometry (BLI) method (Octet R8) to monitor the binding kinetics between the compounds and CypA, and to calculate the affinity of the binary complex. His-tagged CypA protein (3589-CAB, R&D) was first immobilized on an NTA sensor, followed by baseline equilibration for 120 seconds in the assay buffer (20 mM HEPES, pH 7.4, 150 mM NaCl, 5 mM MgCl2, 1 mM TCEP, 0.01% Tween 20). The sensor was then exposed to buffer solutions containing different concentrations of the compounds to monitor the association process in real time. When the high-concentration compound binding reached a plateau, the sensor was transferred to compound-free buffer to measure the dissociation process. To ensure data accuracy, DMSO normalization was performed, non-specific binding was minimized by buffer optimization, and negative and positive controls were set to verify assay specificity. Data were processed using Octet Analysis Studio 13.0, analyzed using a 1:1 binding model, and the association rate constant (ka), dissociation rate constant (kdis), and equilibrium dissociation constant (KD1) were calculated.

For series [1], the target named is ternary complex comprising RAS and CypA; KRAS^G12V (Homo sapiens, UniProt P01116+P62937, G12V). Put plainly: Ternary complex binding assay (BLI), KRAS G12V. The following applies: GMPPNP-loaded KRAS^G12V, fixed concentration of CypA, pH 7.4, read-out: KD2 (ternary complex equilibrium dissociation constant). Here is the method:
(§1) To evaluate the ability of the test compounds to induce the formation of a ternary complex comprising RAS and CypA, we employed a Bio-layer Interferometry (BLI) method (Octet R8) to monitor the binding kinetics among the compounds, RAS, and CypA, and to calculate the affinity of the ternary complex. GMPPNP was first incubated with RAS protein to load GMPPNP onto RAS. His-tagged RAS proteins with different mutations were then immobilized on NTA sensors, followed by baseline equilibration for 120 seconds in the assay buffer (20 mM HEPES, pH 7.4, 150 mM NaCl, 5 mM MgCl2, 1 mM TCEP, 5 μM GMPPNP, 0.01% Tween 20). The sensors were subsequently exposed to buffer containing various concentrations of the compounds and a fixed concentration of CypA, and the association phase of ternary complex formation was monitored in real time. Once binding reached a plateau, the sensors were transferred to compound- and CypA-free buffer to measure the dissociation phase. To ensure accuracy, DMSO normalization was performed, buffer composition was optimized to reduce non-specific binding, and both negative and positive controls were employed to verify assay specificity. Data were processed using Octet Analysis Studio 13.0, analyzed using a 1:1 binding model, and the association rate constant (ka), dissociation rate constant (kdis), and equilibrium dissociation constant (KD2) were calculated.

Series [2] concerns the target ternary complex comprising RAS and CypA; KRAS^G12D (Homo sapiens, UniProt P01116+P62937, G12D). Put plainly: Ternary complex binding assay (BLI), KRAS G12D. The conditions noted are these: GMPPNP-loaded KRAS^G12D, fixed concentration of CypA, pH 7.4, read-out: KD2 (ternary complex equilibrium dissociation constant). The procedure: as §1
In another series the test system is H358. Put plainly: In vitro cell proliferation inhibition assay (CellTiter-Glo), H358. The following applies: H358, KRAS (p.G12C), 72 h; read-out: IC50, antiproliferative activity. The class given is cell-based.
The subject of another series is HepG2. The experiment in a line: In vitro cell proliferation inhibition assay (CellTiter-Glo), HepG2. The class given is cell-based. The conditions noted are these: HepG2, NRAS (p.Q61L), 72 h; read-out: IC50, antiproliferative activity.
For series [3], the target named is ternary complex comprising RAS and CypA; KRAS^WT (Homo sapiens, UniProt P01116+P62937). The experiment in a line: Ternary complex binding assay (BLI), KRAS WT. The following applies: GMPPNP-loaded KRAS^WT, fixed concentration of CypA, pH 7.4, read-out: KD2 (ternary complex equilibrium dissociation constant). Here is the method: as §1
A short description of series [4]: Pharmacokinetic study in mice. The class given is in vivo. The conditions noted are these: mouse, male CD-1 mice; for bioavailability: blood; for bioavailability / AUC / Cmax: po; for Vd / clearance: iv; for Vd / clearance / AUC / Cmax: whole blood. Here is the method:
To evaluate the pharmacokinetic behavior of the compounds of the disclosure in male CD-1 mice, the test compounds were dissolved in a solvent (5% DMSO/10% solutol/85% water). Twelve male CD-1 mice were divided into two groups, with six animals in each group. Group 1 received a single intravenous bolus (i.v.) administration of the compound, and Group 2 received a single oral (p.o.) administration of the compound. Whole blood samples were collected at 0.083 h (intravenous group only), 0.25, 0.5, 1, 2, 4, 8, and 24 hours after dosing. The concentration of the test compound in whole blood samples was determined using the LC-MS/MS method.

For another series, the system named is MV411. The experiment in a line: In vitro cell proliferation inhibition assay (CellTiter-Glo), MV411. In kind it is cell-based. The following applies: MV411, KRAS wild type, 72 h; read-out: IC50, antiproliferative activity.
Another series deals with PSN1. Put plainly: In vitro cell proliferation inhibition assay (CellTiter-Glo), PSN1. The following applies: PSN1, KRAS (p.G12R), 72 h; read-out: IC50, antiproliferative activity. In kind it is cell-based.
Another series has as its system AsPC-1. Put plainly: In vitro cell proliferation inhibition assay (CellTiter-Glo), AsPC-1. The class given is cell-based. The following applies: AsPC-1, KRAS (p.G12D), 72 h; read-out: IC50, antiproliferative activity.
The test system of the next series is HCT116. Put plainly: In vitro cell proliferation inhibition assay (CellTiter-Glo), HCT116. The conditions noted are these: HCT116, KRAS (p.G13D), 72 h; read-out: IC50, antiproliferative activity. The class given is cell-based.

T1 sequence (P62937 whole entry): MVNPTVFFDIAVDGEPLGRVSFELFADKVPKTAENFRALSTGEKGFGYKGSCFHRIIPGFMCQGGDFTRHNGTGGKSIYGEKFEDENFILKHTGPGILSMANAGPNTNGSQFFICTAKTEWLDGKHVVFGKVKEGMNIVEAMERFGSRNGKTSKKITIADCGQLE
Sequence of ternary complex comprising RAS and CypA; KRAS^G12D (P01116 1-188 isoform P01116-2 G12D): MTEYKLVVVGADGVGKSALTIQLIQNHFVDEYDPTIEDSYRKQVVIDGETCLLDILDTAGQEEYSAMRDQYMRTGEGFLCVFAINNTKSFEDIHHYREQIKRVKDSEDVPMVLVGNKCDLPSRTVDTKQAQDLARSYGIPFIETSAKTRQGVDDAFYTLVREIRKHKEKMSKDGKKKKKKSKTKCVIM
Sequence of ternary complex comprising RAS and CypA; KRAS^G12D (P62937 whole entry): as the sequence (P62937 whole entry) above
Sequence of ternary complex comprising RAS and CypA; KRAS^WT (P01116 1-188 isoform P01116-2): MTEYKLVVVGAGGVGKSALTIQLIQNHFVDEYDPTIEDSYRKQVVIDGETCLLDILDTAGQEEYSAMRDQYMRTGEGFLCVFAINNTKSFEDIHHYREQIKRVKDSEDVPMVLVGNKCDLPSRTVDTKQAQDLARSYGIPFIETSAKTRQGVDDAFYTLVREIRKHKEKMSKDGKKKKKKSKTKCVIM
Sequence of ternary complex comprising RAS and CypA; KRAS^WT (P62937 whole entry): as the sequence (P62937 whole entry) above
Sequence of ternary complex comprising RAS and CypA; KRAS^G12V (P01116 1-188 isoform P01116-2 G12V): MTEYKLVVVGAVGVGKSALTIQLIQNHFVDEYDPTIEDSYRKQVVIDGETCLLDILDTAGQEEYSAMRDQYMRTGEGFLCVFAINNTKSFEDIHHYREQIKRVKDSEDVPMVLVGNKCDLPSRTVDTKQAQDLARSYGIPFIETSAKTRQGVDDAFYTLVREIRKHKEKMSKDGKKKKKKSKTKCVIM
Sequence of ternary complex comprising RAS and CypA; KRAS^G12V (P62937 whole entry): as the sequence (P62937 whole entry) above

Consider `CO[C@@H](C)c1ncc(-c2nnc(C3CCN(C4COC4)CC3)o2)cc1-c1c2c3cc(ccc3n1CC(F)(F)F)-c1csc(n1)C[C@H](NC(=O)[C@H]1[C@H](C)[C@@H]1C)C(=O)N1CCC[C@H](N1)C(=O)OCC(C)(C)C2` (atropisomer, axis not shown) [Compound 6, (1r,2R,3S)—N-((6^3S,4S,Z)-1^2-(2-((S)-1-methoxyethyl)-5-(5-(1-(oxetan-3-yl)piperidin-4-yl)-1,3,4-oxadiazol-2-yl)pyridin-3-yl)-10,10-dimethyl-5,7-dioxo-1^1-(2,2,2-trifluoroethyl)-6^1,6^2,6^3,6^4,6^5,6^6-hexahydro-1^1H-8-oxa-2(4,2)-thiazola-1(5,3)-indola-6(1,3)-pyridazinacycloundecaphane-4-yl)-2,3-dimethylcyclopropane-1-carboxamide], for which the IC50 came to 0.03 nM in the series on SW480; 0.007 nM in the series with H358; 0.04 nM in the series with HepG2; 0.12 nM in the series with MV411; 0.04 nM in the series on PSN1; 0.02 nM in the series with AsPC-1. In the series on HCT116, the IC50 turned out to be 0.44 nM. For the same molecule, the Kd on cyclophilin A (CypA) was found to be 3 nM; in [1], 26 nM; in [2] it was 24 nM; in [3], 16 nM. For the same molecule, the kon on cyclophilin A (CypA) was found to be 130000 M⁻¹ s⁻¹. The koff at cyclophilin A (CypA) was determined as 0.0004 s⁻¹. Also, the bioavailability in series [4] (i.v. 1 mpk, p.o. 2 mpk) is 43.1%. Besides, the Vd in series [4] (1 mg/kg, i.v. 1 mpk) was found to be 1.14 L/kg. This molecule had a clearance in series [4] (1 mg/kg, i.v. 1 mpk) of 2.6 mL/min/kg. The AUC in series [4] (2 mg/kg, p.o. 2 mpk) amounted to 5630 ng·h/mL. Besides, in series [4] (2 mg/kg, p.o. 2 mpk), the Cmax turned out to be 439 ng/mL.
With `CO[C@@H](C)c1ncc(-c2nnc(C3CCN(C4COC4)CC3)o2)cc1-c1c2c3cc(ccc3n1CC(F)(F)F)-c1csc(n1)C[C@H](NC(=O)C1[C@@H](C)[C@H]1C)C(=O)N1N[C@H](C(=O)OCC(C)(C)C2)C2CC1C2` (stereo partly drawn) [Compound 8], the IC50 with SW480 turned out to be 0.01 nM; in the series on H358, 0.01 nM; in the series with HepG2, 0.02 nM; in the series with MV411, 0.07 nM; in the series on PSN1, 0.01 nM; with AsPC-1, 0.01 nM. Moreover, in the series with HCT116, the 50% inhibitory concentration (IC50) was found to be 0.03 nM. Also, the Kd was determined as 2 nM on cyclophilin A (CypA), 8.3 nM in series [1], 8.8 nM in [2] and 10 nM in series [3]. Moreover, the kon at cyclophilin A (CypA) was 330000 M⁻¹ s⁻¹. Further, the koff on cyclophilin A (CypA) came out at 0.00066 s⁻¹. Further, in series [4] (i.v. 0.25 mpk, p.o. 0.5 mpk), the bioavailability was 54.6%. In series [4] (i.v. 0.25 mpk), this molecule showed a Vd of 1.84 L/kg. In series [4] (i.v. 0.25 mpk), this molecule gave a clearance of 1.8 mL/min/kg. The molecule further displayed an AUC in [4] (0.5 mg/kg, p.o. 0.5 mpk) of 2590 ng·h/mL. For the same molecule, in series [4] (0.5 mg/kg, p.o. 0.5 mpk), the Cmax worked out at 96 ng/mL.
